Reference: US20100075907A1, “NEUROMEDIN U RECEPTOR AGONISTS AND USES THEREOF” (priority 2006, published 2010)
Entries after “also recorded” stand apart in the source; their conditions may differ. Non-standard residues stand in square brackets, D forms with d. (PEG)2 40 kDa = branched PEG of 40 kDa linked via the Cys side-chain thiol (code C2 = Cys(PEG)2 40 kDa)

Tests used:
[1] = test system: diet-induced obese mice; experiment: Feeding study in diet-induced obese mice (food intake, body weight); type: in vivo; details: for % Food intake (FI) reductions Day 1: Day 1, based on vehicle responses; for % Food intake (FI) reductions Day 2: Day 2, based on vehicle responses; for % Food intake (FI) reductions Day 3: Day 3, based on vehicle responses; for anorectic effect: acute administration; for body weight / duration of reductions in food intake: single acute subcutaneous administration
Excerpt: NMUR1 knockout (Nmur1−/−) mice were generated using standard homologous recombination techniques. Nmur1 mice were subsequently transferred to Taconic Farms where they were either maintained on a 75% C57BL/6×25% 129S6/SvEv mixed genetic background or backcrossed six generations to C57BL/6. NMUR2 knockout (Nmur2−/−) mice were licensed from Deltagen Inc., San Mateo, Calif. and subsequently transferred to Taconic Farms where they were either maintained on a 75% C57BL/6×25% 129/OlaHsd mixed genetic background or backcrossed for seven generations to C57BL/6. NMUR1 and NMUR2 double knockout (Nmur1&2−/−) mice were generated by crossing N6 Nmur1−/− mice to N7 Nmur2−/− mice. Mice were individually housed in Tecniplast cages in a conventional SPF facility. Mice were initially maintained on a regular chow diet and then early in their life were switched to a high fat diet (D12492: 60% kcal from fat; Research Diets, Inc., New Brunswick, N.J.) with ad libitum access to water in a 12-hour light/12-hour dark cycle.
Ad libitum fed male diet-induced obese mice were weighed and dosed either i.p. or s.c. about 30 minutes prior to the onset of the dark phase of the light cycle and provided with a preweighed aliquot of high fat diet D12492 which was then weighed 2 hours and 18 hours (day 1), 42 hours (day 2), 66 hours (day 3), and 90 hours (day 4) after the onset of the initial dark phase. Mice were weighed at the 18, 42, 66 and 90 hour time points.

[2] = Pharmacokinetic analysis using the FLIPR bioassay; type: in vivo; details: mice, 10 mg/kg subcutaneously, compared with hNMU-25
Procedure: Neuromedin U receptor agonist NMU12 exposure levels in dosed animals were measured using the bioassay and compared with hNMU-25 exposure levels. Animals were dosed subcutaneously with 10 mg/kg NMU12 or hNMU-25 and plasma was collected at various time points post-dose. The bioassay was a FLIPR-based assay, which was performed essentially as described above with the following modifications. Sample preparation prior to the assay was performed on ice to minimize degradation of plasma samples. The assay was run with 4% plasma as the final concentration. A three-point titration was done with the dosed plasma and tested on human NMUR1-expressing cell lines using FLIPR. The response after sample addition was taken as the maximum fluorescence units minus the fluorescence immediately prior to stimulation for each well. In addition to a three-point titration of dosed plasma samples, a 16-point titration of the peptide (hNMU-25 or NMU12) was run in 4% plasma (naive plasma) to serve as the standard. The concentration of the peptide in plasma was calculated based on extrapolations from the appropriate standard using the GraphPad Prism software.

[3] = target: hNMUR2 (Homo sapiens, UniProt Q9GZQ4); experiment: FLIPR calcium mobilization assay, human NMUR2; type: cell-based; parameters: expressed in transfected cells; host or cells: FLP-In CHO or HEK-293 FLP-In cells (pcDNA5); HEK-293/aeq17 lines (pcDNA3.1) were also made; details: human NMUR2
Excerpt: (§1) Human, mouse or rat cDNAs encoding NMUR1 or NMUR2 (as described in Howard et al. Nature 406: 70-74 (2000) were subcloned in pcDNA5 (Invitrogen) and transfected into FLP-In CHO cells and HEK-293 FLP-In cells purchased from Invitrogen (Carlsbad, Calif.) using lipofectamine (Invitrogen). The Flp-In system allows integration and expression of a particular gene of interest at a specific genomic location utilizing the Flp recombinase from yeast. The transfected cells were selected by growth in medium containing 200 μg/mL hygromycin (Invitrogen). Populations were frozen at early passage numbers, and these stocks were used for further studies. Stable clones that expressed the mRNAs were identified functionally by FLIPR as well as by RT-PCR. […] Two different rodent NMUR1 cell lines were thus generated: one with the codon as predicted from the genomic databases and another cell line with an engineered methionine (ATG) as the start codon. Additionally, stable cell lines expressing the human receptors were generated in HEK-293/aeq17 cells which stably express the aequorin gene under the CMV promoter. The human NMUR2 cDNA was cloned into pcDNA3.1 and human NMUR1 was subcloned into pIRES-puro (Clontech, Mountain View, Calif.), after transfection cells were selected in media containing G418 and either hygromycin (NMUR2) or puromycin (NMUR1).
(§2) The NMU receptors signal primarily through Gαq/11 proteins; therefore calcium mobilization assays can be utilized for functional activity.
(§3) Stable cell lines expressing human and or rodent NMUR1 or human NMUR2 receptors were plated at a density of 12,000 cells per well overnight on poly-lysine coated 384-well black-walled plates. The following day, the media was removed from the plates and the cells were subsequently loaded with Fluo-3 (Molecular Probes), a calcium sensitive dye, diluted in FLIPR buffer (1× Hank's buffered saline containing 20 mM HEPES, 0.1% BSA, 2.5 mM probenecid (Sigma) and 1.6 mM TR40). All reagents are from Invitrogen unless otherwise noted. Peptide stocks were resuspended in DMSO at a stock concentration of 2 mM and diluted in FLIPR buffer on the day of the experiment to a 4 μM working stock solution.
(§4) After a 90 minute incubation at room-temperature, cell plates were loaded onto a FLIPR (Molecular Devices) to monitor cellular fluorescence (excitation=488 nm; emission=540 nm) before and after compound/peptide addition. Eight to twelve point dose responses were tested on NMUR-expressing cell lines using FLIPR with 1 μM peptide as the highest dose. The response after peptide addition was taken as the maximum fluorescence units minus the fluorescence immediately prior to stimulation for each well. EC50 values were calculated using GraphPad Prism (San Diego, Calif.) software.
(§5) In vitro responses of Neuromedin U receptor agonists (NMU1 to NMU25) in the FLIPR assay for human (Table 3), mouse (Table 4) and rat (Table 5) NMUR1 and NMUR2. EC50s are reported in nM values. Percent activity refers to the maximum response at 1 μM compared to the hNMU-25 response at the same concentration. NT=not tested.

[4] = target: T1, hNMUR1 (Homo sapiens, UniProt Q9HB89); experiment: FLIPR calcium mobilization assay, human NMUR1; type: cell-based; parameters: expressed in transfected cells; host or cells: FLP-In CHO or HEK-293 FLP-In cells (pcDNA5); HEK-293/aeq17 lines (pIRES-puro) were also made; details: human NMUR1
T1 sequence (Q9HB89 1-426): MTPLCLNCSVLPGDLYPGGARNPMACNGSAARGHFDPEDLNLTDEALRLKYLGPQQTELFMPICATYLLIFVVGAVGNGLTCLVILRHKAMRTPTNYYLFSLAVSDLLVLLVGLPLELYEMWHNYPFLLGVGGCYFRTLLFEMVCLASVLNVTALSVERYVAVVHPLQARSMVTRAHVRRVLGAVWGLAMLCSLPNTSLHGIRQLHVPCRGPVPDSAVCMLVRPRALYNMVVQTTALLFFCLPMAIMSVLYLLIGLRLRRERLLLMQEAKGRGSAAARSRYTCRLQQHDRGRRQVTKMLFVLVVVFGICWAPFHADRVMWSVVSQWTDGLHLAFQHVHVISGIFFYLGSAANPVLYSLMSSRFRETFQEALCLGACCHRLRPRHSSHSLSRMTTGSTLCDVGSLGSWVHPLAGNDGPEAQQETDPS
Excerpt: as §1, §2, §3, §4, §5

Chain of hNMUR2 (Q9GZQ4 whole entry): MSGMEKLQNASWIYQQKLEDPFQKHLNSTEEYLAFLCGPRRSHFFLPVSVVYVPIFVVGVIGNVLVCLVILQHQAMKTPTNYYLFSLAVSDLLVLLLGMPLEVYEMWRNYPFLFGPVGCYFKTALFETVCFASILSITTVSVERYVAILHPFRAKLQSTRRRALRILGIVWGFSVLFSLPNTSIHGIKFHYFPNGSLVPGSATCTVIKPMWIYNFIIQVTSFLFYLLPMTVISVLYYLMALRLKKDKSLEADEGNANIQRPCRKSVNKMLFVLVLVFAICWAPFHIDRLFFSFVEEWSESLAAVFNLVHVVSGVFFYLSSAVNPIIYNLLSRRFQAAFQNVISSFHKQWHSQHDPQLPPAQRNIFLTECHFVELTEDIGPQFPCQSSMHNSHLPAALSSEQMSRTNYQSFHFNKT

In the case of “Ac-C2-Ttds-FLFRPRN-CONH2 (Ac-CFLFRPRN-NH2; not fully specified (residue 1); printed as Ac-C2-Ttds-FLFRPRN-CONH2) [NMU16, C2 = Cys(PEG)240 kDa]”, the “Body weight (BW) change (in grams) {relative to vehicle} Day 1” value ([1]; 10 mg/kg) is reported as −0.3 grams, the “% Food intake (FI) reductions Day 1” value ([1]; 10 mg/kg) is reported as 11% and the “Body weight (BW) change (in grams) {relative to vehicle} Day 1” value ([1]; 30 mg/kg) is reported as −0.9 grams. The “% Food intake (FI) reductions Day 1” value ([1]; 30 mg/kg) was 25%.
For “Ac-C2ASQSRGYFLFRPRN-CONH2 (Ac-C((PEG)2 40 kDa)ASQSRGYFLFRPRN-NH2) [NMU18, C2 = Cys(PEG)240 kDa]”, the “extension of serum half-life by PEGylation” value [1] was “two days”, the “Body weight (BW) change (in grams) {relative to vehicle} Day 1” value ([1]; 10 mg/kg) was −2.6 grams and the “% Food intake (FI) reductions Day 1” value ([1]; 10 mg/kg) was 71%. The “Body weight (BW) change (in grams) {relative to vehicle} Day 2” value ([1]; 10 mg/kg) was −0.2 grams and the “% Food intake (FI) reductions Day 2” value ([1]; 10 mg/kg) was 40%.
With “Ac-C2FRVDEEFQSPFASQSRGYFLFRPRN-CONH2 [NMU12] (Ac-C((PEG)2 40 kDa)FRVDEEFQSPFASQSRGYFLFRPRN-NH2) [C2 = Cys(PEG)240 kDa from NOF Corporation (SUNBRIGHT GL2-400MA)]” the “half-life in human plasma” value was “greater than three days”, the “metabolic stability in vivo (plasma exposure)” value [2] was “greater metabolic stability in vivo” and the “Body weight (BW) change (in grams) {relative to vehicle} Day 1” value ([1]; 10 mg/kg) was −1.8 grams. The “% Food intake (FI) reductions Day 1” value ([1]; 10 mg/kg) was 51%, the “Body weight (BW) change (in grams) {relative to vehicle} Day 2” value ([1]; 10 mg/kg) was −1.3 grams and the “% Food intake (FI) reductions Day 2” value ([1]; 10 mg/kg) was 50%. For the same substance, the “Body weight (BW) change (in grams) {relative to vehicle} Day 3” value ([1]; 10 mg/kg) was −0.2 grams, the “% Food intake (FI) reductions Day 3” value ([1]; 10 mg/kg) was 15% and the “duration of reductions in food intake and body weight” value ([1]; NMUR1 knockout animals) was “two days post dose”. The “duration of reductions in food intake and body weight” value ([1]; NMUR2 knockout animals) was “only overnight effects”, the anorectic effect ([1]; NMUR1/NMUR2 double knockout animals) was “no effect was observed” and the anorectic effect ([1]; wild-type animals) was “highly efficacious”. For the same substance, the “cumulative food intake reduction relative to the vehicle treated group” value ([1]; chronic administration QD, Q2D or Q3D) was 12-27%, the food intake ([1]; peripheral administration, Nmur1 knockout mice) was “able to reduce food intake” and the “crossing the blood-brain barrier” value ([1]; peripheral administration, inferred from knockout mice) was “capable of crossing the blood-brain barrier; also recorded: able to cross the blood-brain barrier”. The body weight [1] was “significant reduction” and the “duration of reductions in food intake” value [1] was “three days”.
With “Ac-C2FRVDEEFQSPFASQSRGYFaWRPRN-CONH2 (Ac-C((PEG)2 40 kDa)FRVDEEFQSPFASQSRGYF[dA]WRPRN-NH2) [NMU14, C2 = Cys(PEG)240 kDa; a = D-Alanine]” the “Body weight (BW) change (in grams) {relative to vehicle} Day 1” value ([1]; 50 mg/kg) was −0.1 grams.
For “Ac-C2GYFLFRPRN-CONH2 ({Ac-C(PEG 40 kDa)}-GYFLFRPRN-NH2) [NMU7, C2 = Cys(PEG)240 kDa]”, the EC50 ([3]; FLIPR) was 36.1 nM, the “% Activity” value ([3]; maximum response at 1 μM compared to hNMU-25) was 91.8% and the EC50 ([4]; FLIPR) was 79.6 nM. The “% Activity” value ([4]; maximum response at 1 μM compared to hNMU-25 response at same concentration) was 91.4%, the “Body weight (BW) change (in grams) {relative to vehicle} Day 1” value ([1]; 10 mg/kg) was −1.7 grams and the “% Food intake (FI) reductions Day 1” value ([1]; 10 mg/kg) was 44%.
For “Ac-C3FRVDEEFQSPFASQSRGYFLFRPRN-CONH2 (Ac-CFRVDEEFQSPFASQSRGYFLFRPRN-NH2; not fully specified (residue 1); printed as Ac-C3FRVDEEFQSPFASQSRGYFLFRPRN-CONH2) [NMU10, C3 = cysteine linked to cholesterol via the side-chain thiol]”, the “Body weight (BW) change (in grams) {relative to vehicle} Day 1” value ([1]; 10 mg/kg) was −1.2 grams and the “% Food intake (FI) reductions Day 1” value ([1]; 10 mg/kg) was 24%.
In the case of “P1-FRVDEEFQSPFASQSRGYFLFRPRN-CONH2 ({branched PEG 40 kDa}-FRVDEEFQSPFASQSRGYFLFRPRN-NH2) [NMU1, P1 = (PEG)240 kDa; branched PEG of 40 kDa linked at N-terminus of native human NMU]”, the “half-life in human plasma” value is reported as “greater than three days”, the “extension of serum half-life by PEGylation” value [1] is reported as “three days” and the “Body weight (BW) change (in grams) {relative to vehicle} Day 1” value ([1]; 10 mg/kg) is reported as −1.4 grams. For the same substance, the “% Food intake (FI) reductions Day 1” value ([1]; 10 mg/kg) was 57%, the “Body weight (BW) change (in grams) {relative to vehicle} Day 2” value ([1]; 10 mg/kg) was −1.7 grams and the “% Food intake (FI) reductions Day 2” value ([1]; 10 mg/kg) was 56%. The “Body weight (BW) change (in grams) {relative to vehicle} Day 3” value ([1]; 10 mg/kg) was −0.4 grams, the “% Food intake (FI) reductions Day 3” value ([1]; 10 mg/kg) was 22% and the “efficacy at reducing overnight food intake compared to hNMU-25” value ([1]; acute subcutaneous administration) was “greater efficacy”. For the same substance, the body weight [1] was “Significant reductions in body weight” and the “duration of reductions in food intake” value [1] was “three days post-dose”.
